Measurements as given in patent US20200369630A1, “HERBICIDALLY ACTIVE 3-PHENYL-5-TRIFLUOROMETHYLISOXAZOLINE-5-CARBOXAMIDES OF CYCLOPENTYLCARBOXYLIC ACIDS AND ESTERS” (Bayer Aktiengesellschaft, priority 2017, published 2020).

What was measured:
Assay type in all cases: in vivo
VERPE: Veronica persica [1] = experiment: Pre-emergence herbicidal action
Text: (§1) Seeds of monocotyledonous and dicotyledonous weed plants and crop plants are placed in plastic or wood fiber pots and covered with soil. The compounds of the invention, formulated in the form of wettable powders (WP) or as emulsion concentrates (EC), are then applied onto the surface of the covering soil as aqueous suspension or emulsion with addition of 0.5% additive at a water application rate of […] (converted). After the treatment, the pots are placed in a greenhouse and kept under good growth conditions for the trial plants. After about 3 weeks, the effect of the preparations is scored visually in comparison with untreated controls as percentages. For example, 100% activity=the plants have died, 0% activity=like control plants. [table]

[2] = system: POLCO: Polygonum convolvulus; experiment: Pre-emergence herbicidal action; details: Table C1, pre-emergence, 80 g/ha, scored visually after about 3 weeks
Text: as §1

[3] = system: AMARE: Amaranthus retroflexus; experiment: Pre-emergence herbicidal action
Text: as §1

[4] = system: ECHCG: Echinochloa crus-galli; experiment: Pre-emergence herbicidal action; details: Table C1, pre-emergence, 80 g/ha, scored visually after about 3 weeks
Text: as §1

LOLRI: Lolium rigidum [5] = experiment: Pre-emergence herbicidal action; details: Table C1, pre-emergence, 80 g/ha, scored visually after about 3 weeks
Text: as §1

[6] = system: ABUTH: Abutilon theophrasti; experiment: Pre-emergence herbicidal action; details: Table C1, pre-emergence, 80 g/ha, scored visually after about 3 weeks
Text: as §1

HORMU: Hordeum murinum [7] = experiment: Pre-emergence herbicidal action; details: Table C1, pre-emergence, 80 g/ha, scored visually after about 3 weeks
Text: as §1

AVEFA: Avena fatua [8] = experiment: Pre-emergence herbicidal action
Text: as §1

VIOTR: Viola tricolor = experiment: Pre-emergence herbicidal action
Text: as §1

PHBPU: Ipomoea purpurea = experiment: Pre-emergence herbicidal action; details: Table C1, pre-emergence, 80 g/ha, scored visually after about 3 weeks
Text: as §1

SETVI: Setaria viridis = experiment: Pre-emergence herbicidal action
Text: as §1

STEME: Stellaria media [9] = experiment: Pre-emergence herbicidal action
Text: as §1

[10] = system: MATIN: Matricaria inodora; experiment: Pre-emergence herbicidal action; details: Table C1, pre-emergence, 80 g/ha, scored visually after about 3 weeks
Text: as §1

[11] = system: ALOMY: Alopecurus myosuroides; experiment: Pre-emergence herbicidal action
Text: as §1

VERPE: Veronica persica [12] = experiment: Post-emergence herbicidal action; details: Table C2, post-emergence, dosage 320 (0.32 kg of active substance per hectare), rated visually after about 3 weeks
Method: (§2) [table] Seeds of monocotyledonous and dicotyledonous weeds and crop plants are placed in sandy loam in plastic or wood-fiber pots, covered with soil and cultivated in a greenhouse under controlled growth conditions. 2 to 3 weeks after sowing, the test plants are treated at the one-leaf stage. The compounds of the invention, formulated in the form of wettable powders (WP) or as emulsion concentrates (EC), are then sprayed onto the green parts of the plants as aqueous suspension or emulsion with addition of 0.5% additive at a water application rate of […] (converted). After the test plants had been kept in the greenhouse under optimum growth conditions for about 3 weeks, the activity of the preparations is rated visually in comparison to untreated controls. For example, 100% activity=the plants have died, 0% activity=like control plants.

[13] = system: POLCO: Polygonum convolvulus; experiment: Post-emergence herbicidal action; details: Table C2, post-emergence, dosage 320 (0.32 kg of active substance per hectare), rated visually after about 3 weeks
Method: as §2

[14] = system: AMARE: Amaranthus retroflexus; experiment: Post-emergence herbicidal action; details: Table C2, post-emergence, dosage 320 (0.32 kg of active substance per hectare), rated visually after about 3 weeks
Method: as §2

[15] = system: ECHCG: Echinochloa crus-galli; experiment: Post-emergence herbicidal action; details: Table C2, post-emergence, dosage 320 (0.32 kg of active substance per hectare), rated visually after about 3 weeks
Method: as §2

LOLRI: Lolium rigidum [16] = experiment: Post-emergence herbicidal action; details: Table C2, post-emergence, dosage 320 (0.32 kg of active substance per hectare), rated visually after about 3 weeks
Method: as §2

[17] = system: ABUTH: Abutilon theophrasti; experiment: Post-emergence herbicidal action; details: Second Table C3, superiority with respect to WO 2012/130798, post-emergence, 80 g/ha
Method: as §2

HORMU: Hordeum murinum [18] = experiment: Post-emergence herbicidal action; details: Table C2, post-emergence, dosage 320 (0.32 kg of active substance per hectare), rated visually after about 3 weeks
Method: as §2

AVEFA: Avena fatua [19] = experiment: Post-emergence herbicidal action; details: Table C2, post-emergence, dosage 320 (0.32 kg of active substance per hectare), rated visually after about 3 weeks
Method: as §2

STEME: Stellaria media [20] = experiment: Post-emergence herbicidal action
Method: as §2

[21] = system: ALOMY: Alopecurus myosuroides; experiment: Post-emergence herbicidal action; details: Table C2, post-emergence, dosage 320 (0.32 kg of active substance per hectare), rated visually after about 3 weeks
Method: as §2

[22] = Second Table C4, superiority with respect to WO 2012/130798, pre-emergence, 20 g/ha
[23] = Table C1, pre-emergence, 80 g/ha, scored visually after about 3 weeks

CCOC(=O)C1CCC(NC(=O)C2(C(F)(F)F)CC(c3cc(F)cc(F)c3)=NO2)C1 (mixture of isomers) [Example I-29]
90%: Herbicidal action against [%] VERPE (VERPE: Veronica persica [1]; [22]) | Herbicidal action against [%] ECHCG [4] | Herbicidal action against [%] HORMU (HORMU: Hordeum murinum [7]) | Herbicidal action against [%] VIOTR (VIOTR: Viola tricolor; [22]) | Herbicidal action against [%] VIOTR (VIOTR: Viola tricolor; [23]) | Herbicidal action against [%] SETVI (SETVI: Setaria viridis; [22]) | Herbicidal action against [%] STEME (STEME: Stellaria media [9]; [22]) | Herbicidal action against [%] STEME (STEME: Stellaria media [9]; [23]) | Herbicidal action against [%] ALOMY [11, 22] | Herbicidal action against [%] POLCO [13] | Herbicidal action against [%] LOLRI (LOLRI: Lolium rigidum [16]) | Herbicidal action against [%] HORMU (HORMU: Hordeum murinum [18]) | Herbicidal action against [%] AVEFA (AVEFA: Avena fatua [19]) | Herbicidal action against [%] ALOMY [21]
100%: Herbicidal action against [%] VERPE (VERPE: Veronica persica [1]; [23]) | Herbicidal action against [%] AMARE [3, 22] | Herbicidal action against [%] AMARE [3, 23] | Herbicidal action against [%] LOLRI (LOLRI: Lolium rigidum [5]) | Herbicidal action against [%] SETVI (SETVI: Setaria viridis; [23]) | Herbicidal action against [%] ALOMY [11, 23]
30%: Herbicidal action against [%] MATIN [10]
80%: Herbicidal action against [%] POLCO [2] | Herbicidal action against [%] AVEFA (AVEFA: Avena fatua [8]; [23]) | Herbicidal action against [%] PHBPU (PHBPU: Ipomoea purpurea) | Herbicidal action against [%] VERPE (VERPE: Veronica persica [12]) | Herbicidal action against [%] AMARE [14] | Herbicidal action against [%] ECHCG [15] | Herbicidal action against [%] ABUTH [17] | Herbicidal action against [%] STEME (STEME: Stellaria media [20]; Second Table C3, superiority with respect to WO 2012/130798, post-emergence, 80 g/ha) | Herbicidal action against [%] STEME (STEME: Stellaria media [20]; Table C2, post-emergence, dosage 320 (0.32 kg of active substance per hectare), rated visually after about 3 weeks)
70%: Herbicidal action against [%] ABUTH [6] | Herbicidal action against [%] AVEFA (AVEFA: Avena fatua [8]; [22])
